Molecular target: α-glucosidase
Assay: p-NPG hydrolysis assay with commercial enzyme (Sigma-Aldrich), absorbance at […] nm
Format: biochemical

α-Glucosidase Inhibitory Activity IC50 (μg/mL), ±SD: 87.55 ± 2.23 µg/mL
Structure (SMILES): Oc1cc(O)c2c(c1)O[C@H](c1ccc(O)c(O)c1)[C@@H](O)C2 [Catechin]
